Experimental data published in paper PMC11013444, “3-NAntC: A Potent Crotoxin B-Derived Peptide against the Triple-Negative MDA-MB-231 Breast Cancer Cell Line” (Molecules, 2024).
In brackets after ≈: the same amount, converted by molar mass. Entries after “also recorded” stand apart in the source; their conditions may differ. Read-outs that look alike come from different tables or passages of the source. Where no end group is shown, it is not given here.

Columns and labels:
HDFa cells [1] = experiment: cells; format: cell-based, human
Method: (§1) MCF-7 (Luminal breast cancer), MDA-MB-231 (TNBC), and MCF10A (non-tumor mammary gland epithelial cells) were purchased from the Rio de Janeiro Cell Bank (BCRJ, Rio de Janeiro, RJ, Brazil). HMEC (Primary Mammary Epithelial Cells) and HDFa (Human Dermal Fibroblasts) cell lines were purchased from Gibco (Waltham, MA, USA). MCF-7 and MDA-MB-231 were cultured in an RPMI 1640 medium supplemented with 10% heat-inactivated FBS, 1% glutamine, and 1% antibiotic/antimycotic solution. MCF10A and HMEC were cultured in MEBM medium supplemented with 100 ng/mL cholera toxin, 2.5 mM L-glutamine, 5% horse serum, 10 µg/mL human insulin, 0.5 µg/mL hydrocortisone, and 10 ng/mL EGF. All cells used in this study were incubated at 37 °C under 5% CO2 and checked for authenticity through polymerase chain reaction (PCR) followed by fragment analysis of eight highly polymorphic microsatellite loci (short tandem repeat—STR) plus gender determination with score ≥ 80%.
(§2) Stock solutions of Peptides 1 to 12, doxorubicin, and cisplatin were prepared in PBS (1X). Doxorubicin and cisplatin were stored at −20 °C and the peptide solutions were freshly prepared before each experiment. The final concentration of PBS (1X) in the culture medium was lower than 0.02%. All the negative controls contained this vehicle in the same culturing conditions as previously described.
(§3) Cell viability assay was conducted using the MTT method. For treatments lasting 24 h, the cells were seeded at the density of 2 × 10^4 cells/well into 96-well sterile plates, and for treatments lasting 48 or 72 h, the cell density was 1 × 10^4 cells/well. The following day, cells were treated by applying 200 μL/well of each agent (Peptides 1 to 12, doxorubicin, or cisplatin) at the desired concentration and incubated for the duration of the treatment. Afterward, cells were incubated with 20 μL/well of an MTT solution (5 mg/mL) for 2.5 h. Then, formazan salts were solubilized with 200 μL of DMSO: isopropanol (3:1) and agitated for at least 15 min at room temperature. The absorbance was measured at 570 nm with a spectrophotometer (Molecular devices Spectra Max Plus 384—San Jose, CA, USA), and relative cell viability was calculated. To evaluate the mechanism of cell death, cell cultures were treated with peptides in the presence or absence of 3-methyladenine (3-MA) ([…]), which is an autophagy inhibitor [37]. After treatment, the MTT assay was carried out as previously described.

MDA-MB-231 cells [2] = experiment: cells; format: cell-based, human; conditions: for IC50: Homo sapiens, MDA-MB-231, MTT, range 0.2–2.0 µg/mL, Figure 4, read-out: IC50 (cell viability)
Method: as §1, §2, §3

MCF10A cells = format: cell-based, human
Method: as §1, §2, §3

zebrafish embryos = experiment: In vivo zebrafish embryo toxicity study
Method: Transgenic Tg(fli1:EGFP)^y1 zebrafish embryos were raised at 28 °C for 48 h in E3 embryo medium 0.2 mM 1-Phenyl-2-Thiourea (PTU). […] Zebrafish embryos obtained at 48 h post fertilization (hpf), n = 20 embryos/group, were subcutaneously injected with the 3-NAntC peptide at 0.0015, 0.015, 0.15, 75, and 150 mg/mL diluted in E3 embryo medium containing 0.003% 1-phenyl-2-thiourea (PTU) and the embryos were maintained at 28.5 °C. Pictures were taken after 24, 48, and 72 h of peptide exposure and the percentage of live animals, as well as the percentage of live animals with malformations, were visually analyzed.

MDA-MB-231 cells [3] = experiment: LDH release assay; format: cell-based, human; conditions: 0–1.0 µg/mL
Method: The CyQUANT LDH Cytotoxicity Assay (Thermo Fisher, Waltham, MA, USA) was employed to determine LDH release as a measure of plasma membrane damage, an important indicator of necrosis and pyroptosis. […] Cell seeding and treatments proceeded as presented in Section 4.3. After treatment incubation, 20 μL of supernatant was transferred to an EIA/RIA plate. The Reaction Mixture (20 μL/well) was added and incubated at room temperature for 30 min in the dark. Afterward, 60 μL/well of the Stop Solution was added and the absorbance of the reaction mixtures was quantified at both 490 nm and 680 nm with a spectrophotometer (Molecular devices Spectra Max Plus 384—San Jose, CA, USA). The absorbance at 680 nm was subtracted from the value at 490 nm, and then relative LDH release was calculated.

HDFa cells [4] = experiment: Cell proliferation assay (BrdU incorporation) in HDFa; format: cell-based, human; conditions: 72 hours, range 0.2–1.0 µg/mL
Method: (§4) Cell proliferation was assessed with the BrdU method using the Cell Proliferation ELISA, BrdU (colorimetric) kit from Roche (Basel, Switzerland). Cell seeding and treatments were carried out as presented in Section 4.3. BrdU-labeling (20 μL/well) was added and incubated for 2.5 h. Then, ELISA was performed with an anti-BrdU-POD antibody, followed by washing and substrate solutions. The substrate was then developed for 15 min and the reaction was stopped with HCl (6M). The absorbance was measured at 495 nm with a spectrophotometer (Molecular devices Spectra Max Plus 384—San Jose, CA, USA), and the relative cell proliferation was calculated.

MDA-MB-231 cells [5] = experiment: Cell proliferation assay (BrdU incorporation) in MDA-MB-231; format: cell-based, human; conditions: for IC50 (proliferation): range 0.2–1.0 µg/mL
Method: as §4

HMEC cells = format: cell-based, human; conditions: 72 h, 1 µg/mL
Method: as §1, §2, §3

MCF-7 cells = format: cell-based, human; conditions: for cell viability: 1 µg/mL
Method: as §1, §2, §3

**Q.** With COc1cccc2c1C(=O)c1c(O)c3c(c(O)c1C2=O)C[C@@](O)(C(=O)CO)C[C@@H]3O[C@H]1C[C@H](N)[C@H](O)[C@H](C)O1 [Doxorubicin, doxorubicin, reference compound] as the compound, how does the IC50 (HDFa cells [1]; Homo sapiens, HDFa, 24 hours, MTT, range 0.2–2.0 µg/mL, Figure 4, read-out: IC50 (cell viability)) read?
**A.** 1.12 µg/mL (≈ 2.06 µM)

**Q.** What about the IC50 (MDA-MB-231 cells [2]; 48 hours) of the same compound?
**A.** 0.21 µg/mL (≈ 0.386 µM)

**Q.** And the IC50 (MDA-MB-231 cells [2]; 72 hours)?
**A.** 0.17 µg/mL (≈ 0.313 µM)

**Q.** How did the “IC50 (cell viability)” value (MDA-MB-231 cells [2]; 24 h) turn out when AIPFYAFY [Peptide 2] was run?
**A.** > 20 µg/mL

**Q.** What about the cell viability (MDA-MB-231 cells [2]; 24 h, 2.5 µg/mL) of the same compound?
**A.** 81.6 ± 5.0%

**Q.** What about the “IC50 (cell viability)” value (MDA-MB-231 cells [2]; 48 h) of the same compound?
**A.** > 20 µg/mL

**Q.** And the cell viability (MDA-MB-231 cells [2]; 48 h, 2.5 µg/mL)?
**A.** 85.0 ± 7.9%

**Q.** What about the “IC50 (cell viability)” value (MCF10A cells; 48 h) of the same compound?
**A.** > 20 µg/mL

**Q.** What about the cell viability (MCF10A cells; 48 h, 2.5 µg/mL) of the same compound?
**A.** 85.7 ± 11.2%

**Q.** How did the cell viability (MDA-MB-231 cells [2]; 24 h, 2.5 µg/mL) turn out when CC[C@H](C)[C@H](NC(=O)[C@H](CCSC)NC(=O)[C@H](CCCCN)NC(=O)[C@H](CC(N)=O)NC(=O)[C@H](Cc1ccccc1)NC(=O)[C@H](CCC(N)=O)NC(=O)[C@H](CC(C)C)NC(=O)[C@H](CC(C)C)NC(=O)[C@@H](N)Cc1c[nH]cn1)C(=O)N[C@@H](CCCCN)C(=O)N[C@@H](Cc1ccccc1)C(=O)N[C@@H](CCC(=O)O)C(=O)N[C@H](C(=O)N[C@@H](CCCNC(=N)N)C(=O)N[C@@H](CCCCN)C(=O)N[C@@H](CC(N)=O)C(=O)N[C@@H](C)C(=O)N[C@H](C(=O)N1CCC[C@H]1C(=O)N[C@@H](Cc1ccccc1)C(=O)O)[C@@H](C)CC)[C@@H](C)O [Peptide 1] was run?
**A.** 94.4 ± 4.6%

**Q.** And the cell viability (MDA-MB-231 cells [2]; 48 h, 2.5 µg/mL)?
**A.** 90.7 ± 3.0%

**Q.** For CSCC[C@H](N)C(=O)N[C@@H](Cc1ccccc1)C(=O)N[C@@H](Cc1ccc(O)cc1)C(=O)N1CCC[C@H]1C(=O)N[C@@H](CC(=O)O)C(=O)N[C@@H](CO)C(=O)N[C@@H](CCCNC(=N)N)C(=O)N[C@@H](CS)C(=O)N[C@@H](CCCNC(=N)N)C(=O)NCC(=O)N1CCC[C@H]1C(=O)N[C@@H](CO)C(=O)N[C@@H](CCC(=O)O)C(=O)N[C@H](C(=O)O)[C@@H](C)O [Peptide 3-NAntC], which “IC50 (cell viability)” value (HDFa cells [1]; 72 h) is on record?
**A.** > 2 µg/mL

**Q.** And the cellular viability (HDFa cells [1]; 72 h, 1 µg/mL)?
**A.** higher than 80%

**Q.** And the cell viability (MDA-MB-231 cells [2]; 24 h, 0.8 µg/mL)?
**A.** 77.5 ± 15.0%

**Q.** And the “IC50 (cell viability)” value (MDA-MB-231 cells [2]; 48 h)?
**A.** 1.44 µg/mL (≈ 0.875 µM)

**Q.** What about the cell viability (MDA-MB-231 cells [2]; 48 h, 0.8 µg/mL) of the same compound?
**A.** 60.8 ± 17.9%

**Q.** What about the cell viability (MDA-MB-231 cells [2]; 48 h, 1 µg/mL) of the same compound?
**A.** 64.6 ± 14.5%

**Q.** What about the “IC50 (cell viability)” value (MDA-MB-231 cells [2]; 72 h) of the same compound?
**A.** 0.55 µg/mL (≈ 0.334 µM)

**Q.** And the cell viability (MDA-MB-231 cells [2]; 72 h, 1 µg/mL)?
**A.** 49.0 ± 17.5%

**Q.** And the lethality (zebrafish embryos; 150 mg/mL, after 48 and 72 h of treatment, n = 20 embryos/group)?
**A.** 45%

**Q.** And the “surviving embryos exhibiting malformations” value (zebrafish embryos; 150 mg/mL, n = 20 embryos/group)?
**A.** 50–60%

**Q.** What about the “lethality and non-lethal events (malformations)” value (zebrafish embryos; 1.5 to 150 µg/mL and 75 mg/mL, embryos 48 hpf, n = 20 embryos/group, 24, 48, 72 h) of the same compound?
**A.** no lethal effects; also recorded: did not show lethality or significant non-lethal events (malformations)

**Q.** What about the “LD50 (dose that kills 50% of the embryos)” value (zebrafish embryos; doses up to 150 mg/mL) of the same compound?
**A.** could not be determined

**Q.** And the LDH release (MDA-MB-231 cells [3]; 24 and 48 h treatments)?
**A.** did not consistently increase LDH release

**Q.** What about the LDH release (MDA-MB-231 cells [3]; 72 h) of the same compound?
**A.** increase in LDH release

**Q.** What about the “IC50 (proliferation)” value (HDFa cells [4]) of the same compound?
**A.** > 1 µg/mL

**Q.** What about the maximum proliferation inhibition (MDA-MB-231 cells [5]; 0.6 µg/mL, 48 h, mean ± SEM) of the same compound?
**A.** 71.1 ± 27.1%

**Q.** And the “IC50 (proliferation)” value (MDA-MB-231 cells [5]; 24h)?
**A.** 0.46 µg/mL (≈ 0.279 µM)

**Q.** And the “IC50 (proliferation)” value (MDA-MB-231 cells [5]; 48h)?
**A.** 0.46 µg/mL (≈ 0.279 µM)

**Q.** And the “IC50 (proliferation)” value (MDA-MB-231 cells [5]; 72h)?
**A.** 0.37 µg/mL (≈ 0.225 µM)

**Q.** What about the cell viability (MCF10A cells; 24 h, 2.5 µg/mL) of the same compound?
**A.** 93.4 ± 7.4%

**Q.** What about the “IC50 (cell viability)” value (MCF10A cells; 48 h) of the same compound?
**A.** > 20 µg/mL

**Q.** And the cell viability (MCF10A cells; 48 h, 2.5 µg/mL)?
**A.** 80.5 ± 5.3%

**Q.** What about the cell viability (MCF10A cells; 48 h, 20 µg/mL) of the same compound?
**A.** 65.9 ± 10.3%

**Q.** What about the cell viability (HMEC cells) of the same compound?
**A.** 98.2 ± 13.8%

**Q.** What about the “IC50 (cell viability)” value (MCF-7 cells; 24 h) of the same compound?
**A.** 2.31 µg/mL (≈ 1.4 µM)

**Q.** And the “IC50 (cell viability)” value (MCF-7 cells; 48 h)?
**A.** 1.49 µg/mL (≈ 0.905 µM)

**Q.** What about the cell viability (MCF-7 cells; 48 h) of the same compound?
**A.** 54.7 ± 15.5%

**Q.** And the “IC50 (cell viability)” value (MCF-7 cells; 72 h)?
**A.** 1.49 µg/mL (≈ 0.905 µM)

**Q.** And the cell viability (MCF-7 cells; 72 h)?
**A.** 62.9 ± 26.0%
